Our source for the EC50 and IC50 values is ChEMBL document CHEMBL4732271, “Novel Substituted Thiadiazoles as Splicing Modulators for Modulating Splicing of mRNA and Uses Thereof for Treating Diseases” (ACS Med Chem Lett, 2021).

For test [1], the target named is SMN2 pre-mRNA. Nature of the test: Modulation of SMN2 mRNA FL splicing in human spinal muscular atrophy patient fibroblasts assessed as SMN2 protein potency incubated for 48 hrs by mesoscale discovery assay.
Test [2] addresses SMN2 pre-mRNA. Nature of the test: Modulation of SMN2 mRNA FL splicing in human spinal muscular atrophy patient fibroblasts incubated for 24 hrs by qPCR analysis. In kind it is tissue-based. In general terms: In qPCR the cycle at which signal appears reflects the starting amount.
Test [3] concerns the target SMN2 pre-mRNA. Nature of the test: Modulation of SMN2 mRNA D7 splicing in human spinal muscular atrophy patient fibroblasts incubated for 24 hrs by qPCR analysis. In kind it is tissue-based.

pEC50, pIC50: −log10 of the molar value.

Turning to `CN(c1nnc(-c2cc(F)c(-c3cnn(C)c3)cc2O)s1)[C@@H]1C[C@H]2CC[C@H](N2)[C@@H]1F`, the pEC50 at SMN2 pre-mRNA [1] is 11.00; on SMN2 pre-mRNA [2] it was 7.80. The compound also had a pIC50 against SMN2 pre-mRNA [3] of 11.00.
For the compound `CN(c1nnc(-c2ccc(-c3cn[nH]c3)cc2O)s1)[C@@H]1C[C@H]2CC[C@H](N2)[C@@H]1F`, the pEC50 on SMN2 pre-mRNA [1] and at SMN2 pre-mRNA [2] was 11.00 each time. Besides, the pIC50 on SMN2 pre-mRNA [3] is 11.00.
With `COc1cc(-c2ccc(-c3nnc(N(C4CC4)[C@@H]4C[C@H]5CC[C@H](N5)C4F)s3)c(O)c2)cc(F)n1` (stereo partly drawn), the pEC50 on SMN2 pre-mRNA [1] was 11.00; on SMN2 pre-mRNA [2], 7.80. On SMN2 pre-mRNA [3], this compound had a pIC50 of 11.00.
For the compound `CN(c1nnc(-c2ccc(-c3cnn(C)c3)cc2O)s1)[C@H]1C[C@@H]2CCC[C@@H](N2)[C@H]1F`, the negative-log EC50 (pEC50) on SMN2 pre-mRNA [1] is 11.00; at SMN2 pre-mRNA [2], 7.80. This compound gave a pIC50 against SMN2 pre-mRNA [3] of 11.00.
As to `CN(c1nnc(-c2ccc(-c3cnn(CF)c3)cc2O)s1)[C@@H]1C[C@H]2CC[C@H](N2)[C@@H]1F`, the pEC50 was 11.00 on SMN2 pre-mRNA [1] and 7.80 at SMN2 pre-mRNA [2]. This compound showed a pIC50 against SMN2 pre-mRNA [3] of 7.80.
Consider `CN(c1nnc(-c2ccc(-c3cnn(C)c3)cc2O)s1)[C@@H]1C[C@H]2CC[C@H](N2)[C@@H]1F`, for which the figures for the pEC50 on SMN2 pre-mRNA [1] and at SMN2 pre-mRNA [2] were 11.00 and 7.80, respectively. Moreover, at SMN2 pre-mRNA [3], the pIC50 is 11.00.

As a reminder, the pEC50 is the EC50 on a negative log10 scale, so that one unit is a factor of ten. One may read the pIC50 as the IC50 on a negative log10 scale, so that one unit is a factor of ten.
